Source: PubChem BioAssay (NCI)
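Cultured in 96-well plates, cells were exposed to test compound for 48 hours across five concentrations. GI50 marks 50% less growth. At the TGI there is no net growth.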

Assays:
Experiment in all cases: NCI anticancer screen, dose series, 48 h
SK-MEL-28 melanoma = tested on: SK-MEL-28 melanoma
RXF 393 renal = tested on: RXF 393 renal
NCI-H23 lung = tested on: NCI-H23 lung
KM12 colon = tested on: KM12 colon
LOX IMVI melanoma = tested on: LOX IMVI melanoma
M14 melanoma = tested on: M14 melanoma
HCT-116 colon = tested on: HCT-116 colon
UACC-257 melanoma = tested on: UACC-257 melanoma
UO-31 renal = tested on: UO-31 renal
IGROV1 ovarian = tested on: IGROV1 ovarian
T-47D breast = tested on: T-47D breast
BT-549 breast = tested on: BT-549 breast
SK-MEL-2 melanoma = tested on: SK-MEL-2 melanoma

SMILES | TGI (SK-MEL-28 melanoma) | TGI (RXF 393 renal) | TGI (NCI-H23 lung) | TGI (KM12 colon) | TGI (LOX IMVI melanoma) | TGI (M14 melanoma) | TGI (HCT-116 colon) | TGI (UACC-257 melanoma) | TGI (UO-31 renal) | TGI (IGROV1 ovarian) | TGI (T-47D breast) | TGI (BT-549 breast) | TGI (SK-MEL-2 melanoma) | GI50 (IGROV1 ovarian) | GI50 (SK-MEL-28 melanoma) | GI50 (SK-MEL-2 melanoma) | GI50 (NCI-H23 lung) | GI50 (KM12 colon) | GI50 (UACC-257 melanoma)
O=C1CCCCCCC2=C1C(Sc1ccccc1)CC2 (centres undefined) | 94.8 µM | 48.6 µM | > 100 µM | > 100 µM | 30.7 µM | > 100 µM | 67.8 µM | > 100 µM | 92.1 µM |  |  |  |  |  |  |  |  |  | 
O=C(O)/C=C/c1ccc(Oc2ccccc2C(=O)O)o1 | > 10 µM |  | > 10 µM | > 10 µM | > 10 µM | > 10 µM | > 10 µM | > 10 µM |  | > 10 µM | > 10 µM | > 10 µM |  |  |  |  |  |  | 
Cc1c(NC(=S)Nc2ccc([N+](=O)[O-])cc2)c(=O)n(-c2ccccc2)n1C | > 100 µM | > 100 µM | > 100 µM | > 100 µM | > 100 µM | > 100 µM | > 100 µM | > 100 µM | > 100 µM | > 100 µM |  | > 100 µM |  |  |  |  |  |  | 
COC(=O)C1=C(C)NC(=O)N2[C@@H](CCOCc3ccccc3)CC[C@@H]12 | > 50 µM | > 50 µM | > 50 µM | > 50 µM | > 50 µM | > 50 µM |  | > 50 µM | > 50 µM | > 50 µM | 49.1 µM |  | > 50 µM |  |  |  |  |  | 
CC(C)(C)OC(=O)NCC(CNC(=O)OC(C)(C)C)C(N)=O | > 100 µM | > 100 µM | > 100 µM | > 100 µM | > 100 µM | > 100 µM | > 100 µM | > 100 µM | > 100 µM | > 100 µM | > 100 µM | > 100 µM |  |  |  |  |  |  | 
COc1ccc(/C=N\N(C)Cc2cccc3ccsc23)cc1 | > 100 µM | > 100 µM | > 100 µM | > 100 µM | > 100 µM | > 100 µM | > 100 µM | > 100 µM | > 100 µM | > 100 µM | > 100 µM | > 100 µM |  |  |  |  |  |  | 
CCOC(=O)C12CCC(=O)N1N(C)c1ncccc1N2 (centres undefined) | > 100 µM | > 100 µM | > 100 µM | > 100 µM | > 100 µM | > 100 µM | > 100 µM | > 100 µM | > 100 µM | > 100 µM | > 100 µM | > 100 µM |  |  |  |  |  |  | 
CCOC(=O)C(NC(=O)c1cccc(Cl)c1)(Nc1ccc(S(=O)(=O)Nc2cc(C)on2)cc1)C(F)(F)F (centres undefined) | > 100 µM | > 100 µM | > 100 µM | > 100 µM | > 100 µM | > 100 µM | > 100 µM | > 100 µM | > 100 µM | > 100 µM | > 100 µM |  | > 100 µM |  |  |  |  |  | 
CN1CCC2(CC1)SSC1(CCN(C)CC1)S2 | > 100 µM |  | > 100 µM | > 100 µM | > 100 µM | > 100 µM | > 100 µM | > 100 µM | > 100 µM |  |  | > 100 µM | > 100 µM |  |  |  |  |  | 
CC1OC(OC2C(O)COC(OC3C(C)OC(OC4C(OC(=O)[C@]56CCC(C)(C)C[C@@H]5C5=CCC7[C@@]8(C)C[C@H](O)[C@H](OC9OC(CO)C(O)C(O)C9O)[C@@](C)(CO)[C@@H]8CC[C@@]7(C)[C@]5(C)CC6)OCC(O)C4O)C(O)C3O)C2O)C(O)C(O)C1O (some centres undefined) | 32.2 µM | 33.5 µM | 51.2 µM | > 100 µM | 46 µM | 41.9 µM | 57.2 µM | 37 µM | 28.4 µM |  | 47.4 µM | 45.7 µM |  |  |  |  |  |  | 
CC1C(C)(C)C23CC12C1(OCCO1)C3Br (centres undefined) | > 100 µM | > 100 µM | > 100 µM | > 100 µM | > 100 µM | > 100 µM | > 100 µM | > 100 µM | > 100 µM | > 100 µM |  | > 100 µM |  |  |  |  |  |  | 
Cc1ccc2c(c1)nc1n2C(c2c(F)cccc2F)SC1 (centres undefined) | > 100 µM | 96.4 µM | > 100 µM | > 100 µM | > 100 µM | > 100 µM | 72.3 µM | > 100 µM | > 100 µM | > 100 µM | > 100 µM |  | 48.2 µM |  |  |  |  |  | 
O=C1C(Cl)=C(Cl)C(=O)C(CCNc2nccs2)=C1Cl | > 100 µM | 46.2 µM | 59.3 µM | > 100 µM |  | 42 µM | 68.4 µM | 54.3 µM | 46.4 µM | 42.2 µM | > 100 µM |  | 75.6 µM |  |  |  |  |  | 
COC(=O)C1=CO[C@@H](C)[C@@H]2Cn3ccc4c5ccccc5nc-4c3C[C@H]12 | > 100 µM | > 100 µM | > 100 µM |  | > 100 µM | > 100 µM | > 100 µM | > 100 µM | > 100 µM | > 100 µM |  |  | > 100 µM |  |  |  |  |  | 
CC(=O)OCc1c(O)c2c([nH]c1=O)CCc1ccccc1-2 | 130 µM | 105 µM | 218 µM | 109 µM | 131 µM |  | 110 µM | 203 µM |  | > 350 µM |  |  | > 35 µM |  |  |  |  |  | 
CC(NC1=NCCO1)c1ccccc1Cl (centres undefined) | > 100 µM | > 100 µM | > 100 µM | > 100 µM | > 100 µM | > 100 µM | > 100 µM | > 100 µM | > 100 µM | > 100 µM | > 100 µM |  | > 100 µM |  |  |  |  |  | 
CCCCN(CC)C(=O)C(=O)Cc1nc2ccc(C(=O)c3ccccc3)cc2[nH]c1=O | > 100 µM | 92 µM | > 100 µM | > 100 µM | > 100 µM | > 100 µM | > 100 µM | > 100 µM | > 100 µM | > 100 µM |  |  |  |  |  |  |  |  | 
OC1NC2Nc3ccccc3NC2NC1O (centres undefined) | > 100 µM | > 100 µM | > 100 µM | > 100 µM | > 100 µM | > 100 µM | > 100 µM | > 100 µM |  | > 100 µM | > 100 µM |  | > 100 µM |  |  |  |  |  | 
FC1(F)ON2CCc3ccccc3C2[C@H]1c1ccccc1 (some centres undefined) | > 100 µM | > 100 µM | > 100 µM | > 100 µM | > 100 µM | > 100 µM | > 100 µM | > 100 µM | > 100 µM | > 100 µM | > 100 µM |  | > 100 µM | > 100 µM | > 100 µM | > 100 µM | > 100 µM | > 100 µM | > 100 µM
